US6472348B1, “Pyridone derivatives and herbicides” (Kumiai Chemical Industry Co., Ltd., priority 1996, dated 2002)

Key:
China jute (Ab) [1] = assay: Test Example 9: crop plant selectivity by upland field foliage treatment (wheat), herbicidal effects; type: in vivo; set-up: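 grade of growth control; 5 = at least 90%; 4 = 70 to 90%; 3 = 50 to 70%; 2 = 30 to 50%; 1 = 10 to 30%; 0 = under 10%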; conditions: dose 1.6 g ai/10a, 14th day after treatment
In short: (§1)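 Wheat and broadleaf weeds were sown together in sand-filled pots and grown for 2 weeks in a greenhouse before foliar treatment. Herbicidal effect on weeds and phytotoxicity to wheat were scored visually against set grading standards on day 14 after treatment, with plants kept in the greenhouse.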

[2] = tested on: common lambsquarters (Ch); assay: as above; type: in vivo; set-up: scale not given here; conditions: dose 1.6 g ai/10a, 14th day after treatment
In short: as §1

slender amaranth (Am) [3] = assay: as above; type: in vivo; set-up: scale not given here; conditions: dose 1.6 g ai/10a, 14th day after treatment
In short: as §1

pale smartweed (Po) [4] = assay: as above; type: in vivo; set-up: scale not given here; conditions: dose 1.6 g ai/10a, 14th day after treatment
In short: as §1

wheat (Tr) = assay: Test Example 9: crop plant selectivity by upland field foliage treatment (wheat), phytotoxicity; conditions: dose 1.6 g ai/10a, 14th day after treatment;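 also: grade of crop injury; 5 = at least 90%; 4 = 70 to 90%; 3 = 50 to 70%; 2 = 30 to 50%; 1 = 10 to 30%; 0 = under 10%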
In short: as §1

corn (Ze) [5] = assay: Test Example 11: crop plant selectivity by upland field foliage treatment (corn), phytotoxicity; conditions: upland field foliage treatment, dose 1.6 g ai/10a, 14th day after treatment
Description: (§2) (Test on Crop Plant Selectivity by Upland Field Foliage Treatment)
(§3) In a plastic pot (surface area: 600 cm^2) filled with sand, corn (Ze), pale smartweed (Po), slender amaranth (Am), common lambsquarters (Ch) and China jute (Ab) were sown and cultured in a green house for 2 weeks. […] The plants were then cultured in a green house, and the evaluation of the herbicidal effects and phytotoxicity was conducted on the 14th day after the treatment in accordance with the standards as identified in Table 47.

China jute (Ab) [6] = assay: Test Example 11: crop plant selectivity by upland field foliage treatment (corn), herbicidal effects; type: in vivo; set-up: scale not given here; conditions: upland field foliage treatment (corn test), dose 1.6 g ai/10a, 14th day after treatment
Description: as §2, §3

[7] = tested on: common lambsquarters (Ch); assay: as above; type: in vivo; set-up: scale not given here; conditions: upland field foliage treatment (corn test), dose 1.6 g ai/10a, 14th day after treatment
Description: as §2, §3

slender amaranth (Am) [8] = assay: as above; type: in vivo; set-up: scale not given here; conditions: upland field foliage treatment (corn test), dose 1.6 g ai/10a, 14th day after treatment
Description: as §2, §3

pale smartweed (Po) [9] = assay: as above; type: in vivo; set-up: scale not given here; conditions: upland field foliage treatment (corn test), dose 1.6 g ai/10a, 14th day after treatment
Description: as §2, §3

cotton (Go) = assay: Test Example 4: crop plant selectivity by upland field soil treatment (cotton), phytotoxicity; type: in vivo; set-up: scale not given here; conditions: dose 6.3 g ai/10 a, evaluated 21st day after application
In short: (§4)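 Upland soil-treatment selectivity test: scoring on day 21 post-application in a greenhouse, rating crop phytotoxicity on cotton and herbicidal effect on co-sown weeds. Seeds were sown in sand-filled pots and covered with soil before treatment.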

green foxtail (Se) [10] = assay: Test Example 4: crop plant selectivity by upland field soil treatment (cotton), herbicidal effects; type: in vivo; set-up: scale not given here; conditions: dose 6.3 g ai/10 a, evaluated 21st day after application
In short: as §4

China jute (Ab) [11] = assay: as above; type: in vivo; set-up: scale not given here; conditions: dose 6.3 g ai/10 a, evaluated 21st day after application
In short: as §4

[12] = tested on: common lambsquarters (Ch); assay: as above; type: in vivo; set-up: scale not given here; conditions: dose 6.3 g ai/10 a, evaluated 21st day after application
In short: as §4

slender amaranth (Am) [13] = assay: as above; type: in vivo; set-up: scale not given here; conditions: dose 6.3 g ai/10 a, evaluated 21st day after application
In short: as §4

pale smartweed (Po) [14] = assay: as above; type: in vivo; set-up: scale not given here; conditions: dose 6.3 g ai/10 a, evaluated 21st day after application
In short: as §4

[15] = tested on: common lambsquarters (Ch); assay: Test Example 2: herbicidal effects by upland field soil treatment; type: in vivo; conditions: 100 g of the active ingredient per 10 ares;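 also: grade of growth control; 5 = at least 90%; 4 = 70 to 90%; 3 = 50 to 70%; 2 = 30 to 50%; 1 = 10 to 30%; 0 = under 10%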
Excerpt: (§5) (Test on Herbicidal Effects by Upland Field Soil Treatment)

slender amaranth (Am) [16] = assay: as above; type: in vivo; conditions: 100 g of the active ingredient per 10 ares
Excerpt: as §5

pale smartweed (Po) [17] = assay: as above; type: in vivo; conditions: 100 g of the active ingredient per 10 ares
Excerpt: as §5

rice flatsedge (Ci) [18] = assay: as above; type: in vivo; conditions: 100 g of the active ingredient per 10 ares
Excerpt: as §5

barnyardgrass (Ec) [19] = assay: as above; type: in vivo; conditions: 100 g of the active ingredient per 10 ares
Excerpt: as §5

Digitaria ciliaris (Di) = assay: as above; type: in vivo; conditions: 100 g of the active ingredient per 10 ares;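 also: grade of growth control; 5 = at least 90%; 4 = 70 to 90%; 3 = 50 to 70%; 2 = 30 to 50%; 1 = 10 to 30%; 0 = under 10%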
Excerpt: as §5

[20] = tested on: common lambsquarters (Ch); assay: Test Example 3: herbicidal effects by upland field foliage treatment; type: in vivo; set-up: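 grade of growth control; 5 = at least 90%; 4 = 70 to 90%; 3 = 50 to 70%; 2 = 30 to 50%; 1 = 10 to 30%; 0 = under 10%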; conditions: 100 g of the active ingredient per 10 ares, evaluated on the 14th day after treatment
In short: (§6)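 Readout: visual herbicidal rating per defined standards, 14th day after treatment. Plants sown in sand (pot area 120 cm^2), soil-covered, greenhouse-cultured for 2 weeks prior to foliage application, then greenhouse-grown until scoring.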

slender amaranth (Am) [21] = assay: as above; type: in vivo; set-up: scale not given here; conditions: 100 g of the active ingredient per 10 ares, evaluated on the 14th day after treatment
In short: as §6

pale smartweed (Po) [22] = assay: as above; type: in vivo; set-up: scale not given here; conditions: 100 g of the active ingredient per 10 ares, evaluated on the 14th day after treatment
In short: as §6

rice flatsedge (Ci) [23] = assay: as above; type: in vivo; set-up: scale not given here; conditions: 100 g of the active ingredient per 10 ares, evaluated on the 14th day after treatment
In short: as §6

barnyardgrass (Ec) [24] = assay: as above; type: in vivo; set-up: scale not given here; conditions: 100 g of the active ingredient per 10 ares, evaluated on the 14th day after treatment
In short: as §6

Diaitaria ciliaris (Di) = assay: as above; type: in vivo; set-up: scale not given here; conditions: 100 g of the active ingredient per 10 ares, evaluated on the 14th day after treatment
In short: as §6

corn (Ze) [25] = assay: Test Example 7: crop plant selectivity by upland field soil treatment (corn), phytotoxicity; type: in vivo; set-up: scale not given here; conditions: dose 6.3 g ai/10a, 21st day after application
In short: (§7)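 Greenhouse pot test in sand with soil cover over seeds of corn and weeds sown together; scored 21 d after treatment.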

green foxtail (Se) [26] = assay: Test Example 7: crop plant selectivity by upland field soil treatment (corn), herbicidal effects; type: in vivo; set-up: scale not given here; conditions: dose 6.3 g ai/10a, 21st day after application
In short: as §7

China jute (Ab) [27] = assay: as above; type: in vivo; set-up: scale not given here; conditions: dose 6.3 g ai/10a, 21st day after application
In short: as §7

[28] = tested on: common lambsquarters (Ch); assay: as above; type: in vivo; set-up: scale not given here; conditions: dose 6.3 g ai/10a, 21st day after application
In short: as §7

slender amaranth (Am) [29] = assay: as above; type: in vivo; set-up: scale not given here; conditions: dose 6.3 g ai/10a, 21st day after application
In short: as §7

pale smartweed (Po) [30] = assay: as above; type: in vivo; set-up: scale not given here; conditions: dose 6.3 g ai/10a, 21st day after application
In short: as §7

bulrush (Sc) = assay: Test Example 1: herbicidal effects by paddy field soil treatment; type: in vivo; conditions: 100 g of the active ingredient per 10 ares, 21st day after the application, index 0-5 of Table 47;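 also: grade of growth control; 5 = at least 90%; 4 = 70 to 90%; 3 = 50 to 70%; 2 = 30 to 50%; 1 = 10 to 30%; 0 = under 10%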
In short: (§8)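 Herbicidal effect was scored against a graded standard 21 days after treatment. Seeds were sown in puddled, leveled paddy soil flooded to 3 cm depth, and the active ingredient was applied at 100 g per 10 ares before greenhouse culture.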

barnyardgrass (Ec) [31] = assay: as above; type: in vivo; conditions: 100 g of the active ingredient per 10 ares, 21st day after the application, index 0-5 of Table 47
In short: as §8

monochoria (Mo) = assay: as above; type: in vivo; conditions: 100 g of the active ingredient per 10 ares, 21st day after the application, index 0-5 of Table 47
In short: as §8

green foxtail (Se) [32] = assay: Test Example 6: crop plant selectivity by upland field soil treatment (soybean), herbicidal effects; type: in vivo; set-up: scale not given here; conditions: dose 6.3 g ai/10a, 21st day after application
In short: (§9)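 Soybean and weeds sown in sand-filled pots and covered with soil, then treated by soil application. Plants grown in a greenhouse, with herbicidal effect and crop phytotoxicity scored on day 21 after application against a fixed rating scale.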

China jute (Ab) [33] = assay: as above; type: in vivo; set-up: scale not given here; conditions: dose 6.3 g ai/10a, 21st day after application
In short: as §9

[34] = tested on: common lambsquarters (Ch); assay: as above; type: in vivo; set-up: scale not given here; conditions: dose 6.3 g ai/10a, 21st day after application
In short: as §9

slender amaranth (Am) [35] = assay: as above; type: in vivo; set-up: scale not given here; conditions: dose 6.3 g ai/10a, 21st day after application
In short: as §9

pale smartweed (Po) [36] = assay: as above; type: in vivo; set-up: scale not given here; conditions: dose 6.3 g ai/10a, 21st day after application
In short: as §9

soybean (Gl) = assay: Test Example 6: crop plant selectivity by upland field soil treatment (soybean), phytotoxicity; type: in vivo; set-up: scale not given here; conditions: dose 6.3 g ai/10a, 21st day after application
In short: as §9

[37] = 21st day after the application, index 0-5 of Table 47
[38] = evaluated on the 21st day after application

SMILES	Herbicidal effects Ab (China jute (Ab) [1])	Herbicidal effects Ch [2]	Herbicidal effects Am (slender amaranth (Am) [3])	Herbicidal effects Po (pale smartweed (Po) [4])	Phytotoxicity Tr (wheat (Tr))	Phytotoxicity Ze (corn (Ze) [5])	Herbicidal effects Ab (China jute (Ab) [6])	Herbicidal effects Ch [7]	Herbicidal effects Am (slender amaranth (Am) [8])	Herbicidal effects Po (pale smartweed (Po) [9])	Phytotoxicity Go (cotton (Go))	Herbicidal effects Se (green foxtail (Se) [10])	Herbicidal effects Ab (China jute (Ab) [11])	Herbicidal effects Ch [12]	Herbicidal effects Am (slender amaranth (Am) [13])	Herbicidal effects Po (pale smartweed (Po) [14])	Herbicidal effects Ch [20]	Herbicidal effects Am (slender amaranth (Am) [21])	Herbicidal effects Po (pale smartweed (Po) [22])	Herbicidal effects Ci (rice flatsedge (Ci) [23])	also measured
Cn1c(C(F)(F)F)ccc(-c2cc(Oc3ncccn3)c(Cl)cc2Cl)c1=O [1-41]	5	5	5	5	2	2	5	5	5	5	1	5	5	5	5	5	5	5	5	5	Herbicidal effects Ch [15, 37]: 5; Herbicidal effects Am (slender amaranth (Am) [16]; [37]): 5; Herbicidal effects Po (pale smartweed (Po) [17]; [37]): 5; Herbicidal effects Ci (rice flatsedge (Ci) [18]; [37]): 5; Herbicidal effects Ec (barnyardgrass (Ec) [19]; [37]): 5; Herbicidal effects Di (Digitaria ciliaris (Di); [37]): 5; Herbicidal effects Ec (barnyardgrass (Ec) [24]): 5; Herbicidal effects Di (Diaitaria ciliaris (Di)): 5; Phytotoxicity Ze (corn (Ze) [25]): 1; Herbicidal effects Se (green foxtail (Se) [26]): 5; Herbicidal effects Ab (China jute (Ab) [27]): 5; Herbicidal effects Ch [28]: 5; Herbicidal effects Am (slender amaranth (Am) [29]): 5; Herbicidal effects Po (pale smartweed (Po) [30]): 5; Herbicidal effects Sc (bulrush (Sc)): 5; Herbicidal effects Ec (barnyardgrass (Ec) [31]): 5; Herbicidal effects Mo (monochoria (Mo)): 5
COCCOc1cc(-c2ccc(C(F)(F)F)n(C)c2=O)c(F)cc1Cl [1-170]	5	5	5	5	1	0	5	5	5	5	1	5	5	5	5	5	5	5	5	5	Herbicidal effects Se (green foxtail (Se) [32]): 5; Herbicidal effects Ab (China jute (Ab) [33]): 5; Herbicidal effects Ch [34]: 5; Herbicidal effects Am (slender amaranth (Am) [35]): 5; Herbicidal effects Po (pale smartweed (Po) [36]): 5; Phytotoxicity Gl (soybean (Gl)): 2; Herbicidal effects Ch [15, 38]: 5; Herbicidal effects Am (slender amaranth (Am) [16]; [38]): 5; Herbicidal effects Po (pale smartweed (Po) [17]; [38]): 5; Herbicidal effects Ci (rice flatsedge (Ci) [18]; [38]): 5; Herbicidal effects Ec (barnyardgrass (Ec) [19]; [38]): 5; Herbicidal effects Di (Digitaria ciliaris (Di); [38]): 5; Herbicidal effects Ec (barnyardgrass (Ec) [24]): 5; Herbicidal effects Di (Diaitaria ciliaris (Di)): 5; Herbicidal effects Sc (bulrush (Sc)): 5; Herbicidal effects Ec (barnyardgrass (Ec) [31]): 5; Herbicidal effects Mo (monochoria (Mo)): 5
Cn1c(C(F)(F)F)ccc(-c2c(Cl)cc(Cl)c3oc(C(Br)(Br)Br)cc23)c1=O [4-40, 3-(5,7-dichloro-2-tribromomethylbenzofuran-4-yl)-1-methyl-6-trifluoromethyl-2-(1H)-pyridone]																					melting point: 225 to 227 °C
